Measurements as given in US10676755B2, “Mutated acetohydroxyacid synthase genes in euphorbiaceae and plant material comprising such genes” (priority 2015, dated 2020).

Legend:
[1] = system: wt cassava AHAS gene in CHI bacterial cells lacking the endogenous AHAS homolog; experiment: bacterial spot test, serially-diluted cells on herbicide plates; format: cell-based, Cassava (Manihot esculenta); details: negative control wt cassava AHAS gene
Experimental: (§1) Mutations were generated by site-directed mutagenesis (SDM) of the wild-type Cassava AHAS gene 1 and transformed into CHI bacterial cells lacking the endogenous AHAS homolog. Serially-diluted cells were plated onto plates with increasing concentrations of either imazamox (IM) or flumetsulam (TP). Cassava AHAS wt and a canola ALS mutant known to be highly herbicide tolerant were used as negative and positive controls, respectively. Representative set of bacterial spot tests showing the positive and negative controls, some other mutants tested and the W574S mutant. The herbicide concentrations listed on the left-most column correspond to the entire row and columns separate different lines. Each spot test consists of four 1:10 serial dilutions (10-3, 10-4, 10-5 and 10-6) after normalization based on the OD600 of each M9 liquid culture.
Mutations were generated by site-directed mutagenesis (SDM) of the wild-type Cassava AHAS gene 1 and transformed into CHI bacterial cells lacking the endogenous AHAS homolog. Serially-diluted cells were plated onto plates with increasing concentrations of either imazamox (IM) or flumetsulam (TP). Cassava AHAS wt and a canola ALS mutant known to be highly herbicide tolerant were used as negative and positive controls, respectively. […]

[2] = system: canola ALS mutant in CHI bacterial cells; experiment: as above; format: cell-based; details: positive control canola ALS mutant
Experimental: as §1
as §1, with “D376A” for “W574S”

[3] = system: cassava AHAS W574S mutant in CHI bacterial cells; experiment: as above; format: cell-based, Cassava (Manihot esculenta); details: similar to the canola positive control
Experimental: as §1

[4] = system: cassava AHAS W574L mutant in CHI bacterial cells; experiment: kill curve assay, colonies counted on herbicide plates; format: cell-based, Cassava (Manihot esculenta); details: growth is inconsistent
Experimental: (§2) Mutants were also tested using a “kill curve” assay where equal numbers of cells containing the mutant of interest were plated onto plates with increasing concentrations of herbicide and the number of resulting colonies counted. Kill curve results averaged between three experiments, each with an average of three technical replicates. Error bars are ±one standard deviation of the averaged data. Results are depicted in FIG. 6.
(§3) Mutants were also tested using a “kill curve” assay where equal numbers of cells containing the mutant of interest were plated onto plates with increasing concentrations of herbicide and the number of resulting colonies counted. Kill curve results averaged between three experiments, each with an average of three technical replicates. Error bars are ±one standard deviation of the averaged data. Results are depicted in FIG. 8.

[5] = system: cassava AHAS D376A mutant in CHI bacterial cells; experiment: bacterial spot test, serially-diluted cells on herbicide plates; format: cell-based, Cassava (Manihot esculenta)
Experimental: as §1, with “D376A” for “W574S”

[6] = system: cassava AHAS W574L mutant in CHI bacterial cells; experiment: as above; format: cell-based, Cassava (Manihot esculenta); details: growth is inconsistent
Experimental: as §1, with “D376A” for “W574S”

[7] = system: cassava AHAS D376A mutant in CHI bacterial cells; experiment: kill curve assay, colonies counted on herbicide plates; format: cell-based, Cassava (Manihot esculenta)
Experimental: as §3

[8] = system: cassava AHAS W574S mutant in CHI bacterial cells; experiment: as above; format: cell-based, Cassava (Manihot esculenta)
Experimental: as §2

Row | Compound | growth of cells on plates containing herbicide [1] | growth of cells on plates containing herbicide [2] | herbicide concentration at which all growth ceased [2] | growth of cells on plates containing herbicide [3] | tolerance to herbicide [4] | tolerance to herbicide [5] | tolerance to herbicide [6] | tolerance to herbicide [7] | tolerance to herbicide [8]
1 | COCc1cnc(C2=NC(C)(C(C)C)C(=O)N2)c(C(=O)O)c1 (stereo not drawn) [IM, imazamox] | failed to grow | grew on all concentrations | 5 mM | robust growth | robust tolerance | robust tolerance | robust tolerance | robust tolerance | –
2 | Cc1ccn2nc(S(=O)(=O)Nc3c(F)cccc3F)nc2n1 [TP, flumetsulam] | failed to grow | grew on all concentrations | 5 mM | robust growth | robust tolerance | – | robust tolerance | – | enhanced tolerance
